# ChEMBL document CHEMBL1649100, “N-3 Hydroxylation of Pyrimidine-2,4-diones Yields Dual Inhibitors of HIV Reverse Transcriptase and Integrase” (ACS Med Chem Lett, 2011)
# pEC50, pIC50: −log10 of the molar value.
# Key:
# [1] = Inhibition of HIV integrase strand transfer activity expressed in Escherichia coli; parameters: species or system Human immunodeficiency virus
# [2] = test system: Human immunodeficiency virus 1; experiment: Antiviral activity against HIV1 3B infected in human CEM-SS cells assessed as inhibition of viral replication after 6 days by MTS assay; assay type: functional, organism-based; conditions: Human immunodeficiency virus 1, 3B, 144 h
# [3] = target: Human immunodeficiency virus type 1 reverse transcriptase (Human immunodeficiency virus 1, UniProt Q72547); experiment: Inhibition of HIV1 reverse transcriptase
# [4] = Inhibition of HIV integrase 3' processing activity expressed in Escherichia coli; parameters: species or system Human immunodeficiency virus
# [5] = Therapeutic index, ratio of CC50 for human CEM-SS cells to EC50 for HIV1 3B; assay type: cell-based; conditions: read-out: Ratio CC50/EC50
# [6] = Cytotoxicity in human CEM-SS cells after 6 days by MTS assay; assay type: cell-based
Structure (SMILES),pIC50 [1],pIC50 [3],pIC50 [4],pEC50 [2],selectivity ratio [5],CC50 at 144 h [6]
CC(C)c1c(Cc2ccccc2)n(COCc2ccccc2)c(=O)n(O)c1=O,4.68,5.21,< 3.48,8.10,> 2500,> 20 µM
CC(C)c1c(Cc2ccccc2)n(COCc2ccccc2)c(=O)n(N)c1=O,< 3.48,5.82,< 3.48,< 5.00,,
CCOCn1c(Cc2ccccc2)c(C(C)C)c(=O)n(O)c1=O,4.07,4.89,< 3.48,5.37,> 4.7,> 20 µM
CCOCn1c(Cc2ccc(F)cc2)c(C(C)C)c(=O)n(O)c1=O,3.98,< 4.00,< 3.48,< 5.00,,
CC(C)c1c(Cc2ccccc2)n(COCc2ccccc2)c(=O)[nH]c1=O,< 3.48,7.40,< 3.48,7.89,> 1500,> 20 µM

# Compounds with a higher pIC50 [1], results first:
pIC50 [1],pIC50 [3],pIC50 [4],Structure (SMILES),pEC50 [2],selectivity ratio [5],CC50 at 144 h [6]
5.26,< 4.00,< 3.48,CC(C)c1c(Cc2ccc(F)cc2)n(COCc2ccc(F)cc2)c(=O)n(O)c1=O,< 5.00,,
5.14,< 4.00,< 3.48,CC(C)c1c(Cc2ccc(F)cc2)n(COCc2ccccc2)c(=O)n(O)c1=O,< 5.00,,
5.46,6.77,< 3.48,CC(C)c1c(Cc2ccccc2)n(COCc2ccc(F)cc2)c(=O)n(O)c1=O,7.62,> 830,> 20 µM
5.09,5.03,< 3.48,CCc1c(Cc2ccccc2)n(COCc2ccccc2)c(=O)n(O)c1=O,5.96,> 18,> 20 µM
